# Laboratory results: US4209527A, “Benzimidazolone derivatives” (Pfizer Inc., priority 1979, dated 1980)
# Where a name gives a salt, the structure may show the parent alone.
# Tested on: not listed separately
# Assay: solubility in water
# Type: physicochemical
# Settings: amorphous powder, freeze-dried
# Procedure: The sodium salt of 3-benzyl-2-oxo-1-benzimidazolineacetic acid is prepared by dissolving said compound in water containing an equivalent amount in moles of sodium hydroxide and then freeze-drying the mixture.
row,Compound,solubility in water
1,"O=C(O)Cn1c(=O)n(Cc2ccccc2)c2ccccc21 [Example 35, sodium salt of 3-benzyl-2-oxo-1-benzimidazolineacetic acid]",freely-soluble in water

# Tested on: not listed separately
# Assay: toxic side effects / untoward pharmacological side reactions
# Type: in vivo, rat
# Settings: diabetic rats, oral, 2.5 mg./kg. to 25 mg./kg.
# Text: As previously indicated, the 3-(substituted methyl)-2-oxo-1-benzimidazolinealkanoic acid final products of this invention are all readily adapted to therapeutic use as aldose reductase inhibitors for the control of chronic diabetic complications, in view of their ability to reduce lens sorbitol levels in diabetic subjects to a statistically significant degree. […] Furthermore, the herein described compounds of this invention can be administered by either the oral or parenteral routes of administration, for the present purposes at hand, without causing any significant untoward pharmacological side reactions to occur in the subject to whom they are so administered. In general, these compounds are ordinarily administered in dosages ranging from about 0.25 mg. to about 25 mg. per kg. of body weight per day, although variations will necessarily occur depending upon the weight and condition of the subject being treated and the particular route of administration chosen.
row,Compound,signs of toxic side effects
1,"O=C(O)Cn1c(=O)n(Cc2ccccc2)c2ccccc21 [Example 15, 3-benzyl-2-oxo-1-benzimidazolineacetic acid]",without showing any substantial signs of toxic side effects

# Biological target: T1, aldose reductase (Bos taurus, UniProt P16116)
# T1 construct: partially purified aldose reductase enzyme obtained from calf lens; from tissue; host or cells: calf lens
# Assay: inhibition of aldose reductase enzyme activity (procedure of S. Hayman et al., modified by K. Sestanj et al.)
# Type: biochemical
# Settings: 10^-4 M; partially purified enzyme from calf lens
# Procedure: The activity of the compounds of the present invention, as agents for the control of chronic diabetic complications, is determined by their ability to successfully pass one or more of the following standard biological and/or pharmacological tests, viz., (1) measuring their ability to inhibit the enzyme activity of isolated aldose reductase; (2) measuring their ability to reduce or inhibit sorbitol accumulation in the sciatic nerve of acutely streptozotocinized (i.e., diabetic) rats; (3) measuring their ability to reverse already-elevated sorbitol levels in the sciatic nerve and lens of chronic streptozotocin-induced diabetic rats; (4) measuring their ability to prevent or inhibit galactitol formation in the lens of acutely galactosemic rats and (5) measuring their ability to delay cataract formation and reduce the severity of lens opacities in chronic galactosemic rats.
# The following 3-(substituted methyl)-2-oxo-1-benzimidazolinealkanoic acid final products of Examples 15-24 and 26-28, respectively, were tested at a concentration level of 10^-4 M for their ability to reduce or inhibit aldose reductase enzyme activity via the procedure of S. Hayman et al., as described in the Journal of Biological Chemistry, Vol. 240, p. 877 (1965) and as modified by K. Sestanj et al. in U.S. Pat. No. 3,821,383. In every case, the substrate employed was partially purified aldose reductase enzyme obtained from calf lens.
row,Compound,inhibition at 100 µM
1,"O=C(O)Cn1c(=O)n(Cc2ccc(Cl)cc2Cl)c2ccccc21 [Example 20, 3-(2,4-dichlorobenzyl)-2-oxo-1-benzimidazolelineacetic acid]",87%
2,"O=C(O)Cn1c(=O)n(Cc2ccccc2)c2ccccc21 [Example 15, 3-benzyl-2-oxo-1-benzimidazolineacetic acid]",84%
3,"O=C(O)Cn1c(=O)n(Cc2ccc(Cl)cc2)c2ccccc21 [Example 17, 3-(p-chlorobenzyl)-2-oxo-1-benzimidazolineacetic acid]",88%
4,"O=C(O)Cn1c(=O)n(Cc2cccc3ccccc23)c2ccccc21 [Example 21, 3-(α-naphthyl)methyl-2-oxo-1-benzimidazolineacetic acid]",92%
5,"O=C(O)Cn1c(=O)n(Cc2ccc3ccccc3c2)c2ccccc21 [Example 22, 3-(β-naphthyl)methyl-2-oxo-1-benzimidazolineacetic acid]",86%

# The remaining lines, values ahead:
row,inhibition at 100 µM,Compound
1,89%,"O=C(O)Cn1c(=O)n(Cc2ccccc2)c2cc(Cl)c(Cl)cc21 [Example 24, 3-benzyl-5,6-dichloro-2-oxo-1-benzimidazolineacetic acid]"
2,71%,"O=C(O)Cn1c(=O)n(CC(=O)c2ccc(Cl)cc2Cl)c2ccccc21 [Example 23, 3-(2,4-dichlorobenzoylmethyl)-2-oxo-1-benzimidazolineacetic acid]"
3,91%,"CC(C(=O)O)n1c(=O)n(Cc2ccc(Cl)c(Cl)c2)c2ccccc21 (stereo not drawn) [Example 27, α-[3-(3,4-dichlorobenzyl)-2-oxo-1-benzimidazoline]propionic acid]"
4,86%,"Cc1ccc(Cn2c(=O)n(CC(=O)O)c3ccccc32)cc1 [Example 16, 3-(p-xylyl)-2-oxo-1-benzimidazolineacetic acid]"
5,89%,"O=C(O)Cn1c(=O)n(Cc2ccc(Cl)c(Cl)c2)c2ccccc21 [Example 19, 3-(3,4-dichlorobenzyl)-2-oxo-1-benzimidazolineacetic acid]"
6,90%,"O=C(O)CCn1c(=O)n(Cc2ccc(Cl)c(Cl)c2)c2ccccc21 [Example 28, β-[3-(3,4-dichlorobenzyl)-2-oxo-1-benzimidazoline]propionic acid]"
7,88%,"COc1ccc(Cn2c(=O)n(CC(=O)O)c3ccccc32)cc1 [Example 18, 3-(p-methoxybenzyl)-2-oxo-1-benzimidazolineacetic acid]"
8,82%,"O=C(O)Cn1c(=O)n(Cc2ccc(Cl)c(Cl)c2)c2cc(Cl)c(Cl)cc21 [Example 26, 3-(3,4-dichlorobenzyl)-5,6-dichloro-2-oxo-1-benzimidazolineacetic acid]"
